The text below walks through data of US12084420B2, “Indoline compounds for inhibiting KIF18A” (Volastra Therapeutics, Inc., priority 2021, dated 2024).

Read-outs that look alike come from different tables or passages of the source.

Experiment [1] deals with KIF18a-Microtubule Complex (Homo sapiens (Human), UniProt Q8NI77). Briefly: Binding kinetics to KIF18a-microtubule complex (global progress curve analysis). The conditions noted are these: for Ki: read-out: KI (determined from binding kinetic assay koff/kon), koff/kon; for koff: read-out: koff (off-rate from binding kinetics assay). The method in brief:
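kon and koff determined by global progress curve analysis, with ADP formation measured by ADP-Glo. Time- and dose-dependent progress curves were globally fitted to a Michaelis-Menten model with one-step slow-binding inhibition.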

The test system of the next experiment is HCC15 cells. Put plainly: Cell viability of KIF18a-sensitive cell lines, HCC15 (Cell Titre-Glo, 7 days). In kind it is cell-based. To be noted: HCC-15 cells, 7 days, Cell Titre-Glo, read-out: HCC-15 IC50. The method in brief:
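Seeding was 24 h before dosing: HCC15 at 600 cells/well in RPMI-1640/10% FBS, OVCAR-3 at 1000 cells/well in RPMI-1640/20% FBS plus insulin, JIMT-1 at 1000 cells/well in DMEM/10% FBS. After serially diluted compound, cells grew 7 days at 37° C. Cell Titre-Glo luminescence was converted to ATP; IC50 came from a four-parameter fit.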

The test system of the next experiment is NIH:OVCAR-3 cells. Put plainly: Cell viability of KIF18a-sensitive cell lines, NIH:OVCAR-3 (Cell Titre-Glo, 7 days). In kind it is cell-based. The conditions noted are these: NIH-OVCAR3 cells, 7 days, Cell Titre-Glo, read-out: NIH-OVCAR3 IC50. On the procedure: (§1) Cell Viability of KIF18a-Sensitive Cell Lines
(§2) Cell lines were seeded as follows 24 hours before compound treatment: HCC15 (Korean Cell Line Bank) 600 cell/well, 95 μL of RPMI-1640 media supplemented with 100 units/mL penicillin, 100 units/mL streptomycin and 10% FBS; NIH:OVCAR-3 (ATCC), 1000 cell/well, 95 μL of RPMI-1640 media supplemented with 100 units/mL penicillin, 100 units/mL streptomycin, 0.01 mg/mL bovine insulin, and 20% FBS; JIMT-1 (Addexbio) 1000 cell/well, 95 μL of DMEM media supplemented with 100 units/mL penicillin, 100 units/mL streptomycin, and 10% FBS.
(§3) Test compounds were added to cells in a 20× dilution scheme by adding 5 μL of serially diluted compound to the plate, and the treated cells were incubated for an additional 7 days in a 37° C., 5% CO2 incubator. DMSO was used as the negative control (0% effect), and wells omitting cells were used as the positive control (100% effect). The cells were incubated for seven days, and cell viability determined via the Promega Cell Titre-Glo® Assay kit. Luminescence units were converted to ATP concentrations via an ATP standard curve (10 point, 2-fold dilution from 5 uM). % Inhibition was calculated for each well as: ([max−min]−[test−min])/[max−min]. IC50 values were calculated from concentration vs. % Inhibition data via a four-parameter variable slope model.

The test system of another experiment is JIMT-1 cells. Briefly: Cell viability of KIF18a-sensitive cell lines, JIMT-1 (Cell Titre-Glo, 7 days). In kind it is cell-based. The conditions noted are these: JIMT-1 cells, 7 days, Cell Titre-Glo, read-out: JIMT-1 IC50. On the procedure: as §1, §2, §3
Experiment [2] concerns OVCAR-3 tumor cells implanted in Balb/C nude mice. Put plainly: In vivo activity, OVCAR-3 tumor xenograft, tumor growth inhibition. To be noted: OVCAR3 model. Also noted: species or system mouse. The protocol:
(§4) Assessment of In Vivo Activity
(§5) OVCAR-3 (ATCC) tumor cells were maintained in vitro in RPMI-1640 medium supplemented with 20% fetal bovine serum, 0.01 mg/mL bovine insulin and 1% Anti-Anti at 37° C. in an atmosphere of 5% CO2 in air. HCC15 (DSMZ) tumor cells were maintained in vitro in RPMI 1640 medium supplemented with 10% fetal bovine serum and 1% Anti-Anti at 37° C. in an atmosphere of 5% CO2 in air.
(§6) The tumor cells were sub-cultured twice weekly. The cells growing in an exponential growth phase were harvested and counted for tumor inoculation.
(§7) Tumor cells (10×10^6) in 0.2 mL of PBS mixed with Matrigel (50:50) were inoculated subcutaneously on the right flank of each mouse. When the average tumor volume reached 110-175 mm^3, animals were randomized into groups of 10 and treatment started. OVCAR-3 cells were implanted in Balb/C nude mice, and HCC15 cell were implanted in SCID Beige mice.
(§8) Compounds were dosed once or twice a day (12 h) orally. Tumor Growth Inhibition (TGI) was calculated using the formula: TGI (%)=[1−(TN−T0)/(VN−V0)]×100; TN is the average tumor volume of a treatment group at the indicated timepoint, T0 is the average tumor volume of the treatment group on treatment day 0, VN is the average tumor volume of the vehicle control group at the indicated timepoint, and V0 is the average tumor volume of the vehicle group on treatment day 0. P value was calculated based on tumor size by One-Way ANOVA with GraphPad Prism 9.4.0 compared with the vehicle group, respectively. **** indicates p<0.0001.
(§9) The tumor volume of vehicle- and compound-treated mice as a function of time after start of treatment and the results of treatments with selected compounds on SCID Beige mice or nude mice implanted with HCC15 or OVCAR-3 are shown in FIGS. 1A-1E.

Experiment [3] deals with HCC15 tumor cells implanted in SCID Beige mice. Put plainly: In vivo activity, HCC15 tumor xenograft, tumor growth inhibition. To be noted: HCC15 model. Further details: species or system mouse. On the procedure: as §4, §5, §6, §7, §8, §9
For another experiment, the target named is hKIF18A (1-374) (Homo sapiens (Human), UniProt Q8NI77). Briefly: Inhibition of KIF18A microtubule-dependent ATPase activity (ADP-Glo). A general note: ADP-Glo first removes unused ATP, then detects ADP through luciferase.
Chain of hKIF18A (1-374) (Q8NI77 whole entry, looked up): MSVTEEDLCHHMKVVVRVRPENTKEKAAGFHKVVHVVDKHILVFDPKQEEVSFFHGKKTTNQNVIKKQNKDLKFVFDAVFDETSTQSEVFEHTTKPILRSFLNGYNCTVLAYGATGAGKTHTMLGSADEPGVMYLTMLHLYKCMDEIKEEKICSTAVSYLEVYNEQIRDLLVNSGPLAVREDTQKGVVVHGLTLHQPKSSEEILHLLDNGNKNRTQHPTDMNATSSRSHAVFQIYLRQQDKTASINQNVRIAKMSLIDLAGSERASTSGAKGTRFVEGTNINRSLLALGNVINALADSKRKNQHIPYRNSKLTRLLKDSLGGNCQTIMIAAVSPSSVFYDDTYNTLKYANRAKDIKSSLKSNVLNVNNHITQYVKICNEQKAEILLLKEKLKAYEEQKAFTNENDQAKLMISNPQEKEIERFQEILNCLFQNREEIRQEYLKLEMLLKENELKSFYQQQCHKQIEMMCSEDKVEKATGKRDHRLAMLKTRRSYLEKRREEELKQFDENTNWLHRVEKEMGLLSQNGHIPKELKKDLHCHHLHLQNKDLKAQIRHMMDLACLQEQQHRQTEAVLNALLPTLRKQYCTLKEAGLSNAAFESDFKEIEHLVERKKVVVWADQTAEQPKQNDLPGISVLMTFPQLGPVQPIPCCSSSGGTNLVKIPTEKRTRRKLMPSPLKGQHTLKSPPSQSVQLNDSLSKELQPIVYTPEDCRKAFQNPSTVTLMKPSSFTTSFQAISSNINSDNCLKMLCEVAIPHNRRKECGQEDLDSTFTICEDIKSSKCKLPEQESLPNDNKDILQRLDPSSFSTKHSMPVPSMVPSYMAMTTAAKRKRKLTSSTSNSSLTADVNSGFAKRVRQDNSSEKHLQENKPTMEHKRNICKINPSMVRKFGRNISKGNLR
Chain of hKIF18A (1-374) (Q2XVP4 whole entry partner, looked up): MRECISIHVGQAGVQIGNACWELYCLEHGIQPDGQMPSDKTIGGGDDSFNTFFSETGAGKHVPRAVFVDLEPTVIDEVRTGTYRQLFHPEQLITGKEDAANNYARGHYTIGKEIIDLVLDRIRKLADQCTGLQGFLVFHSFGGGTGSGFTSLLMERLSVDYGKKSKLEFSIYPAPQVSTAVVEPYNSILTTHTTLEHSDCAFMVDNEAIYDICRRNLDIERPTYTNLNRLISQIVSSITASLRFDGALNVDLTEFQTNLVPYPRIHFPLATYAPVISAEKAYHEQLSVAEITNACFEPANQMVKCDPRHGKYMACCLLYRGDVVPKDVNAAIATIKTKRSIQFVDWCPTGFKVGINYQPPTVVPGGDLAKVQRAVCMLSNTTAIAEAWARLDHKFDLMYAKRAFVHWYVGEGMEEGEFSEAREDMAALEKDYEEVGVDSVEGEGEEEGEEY
Chain of hKIF18A (1-374) (P02554 whole entry partner, looked up): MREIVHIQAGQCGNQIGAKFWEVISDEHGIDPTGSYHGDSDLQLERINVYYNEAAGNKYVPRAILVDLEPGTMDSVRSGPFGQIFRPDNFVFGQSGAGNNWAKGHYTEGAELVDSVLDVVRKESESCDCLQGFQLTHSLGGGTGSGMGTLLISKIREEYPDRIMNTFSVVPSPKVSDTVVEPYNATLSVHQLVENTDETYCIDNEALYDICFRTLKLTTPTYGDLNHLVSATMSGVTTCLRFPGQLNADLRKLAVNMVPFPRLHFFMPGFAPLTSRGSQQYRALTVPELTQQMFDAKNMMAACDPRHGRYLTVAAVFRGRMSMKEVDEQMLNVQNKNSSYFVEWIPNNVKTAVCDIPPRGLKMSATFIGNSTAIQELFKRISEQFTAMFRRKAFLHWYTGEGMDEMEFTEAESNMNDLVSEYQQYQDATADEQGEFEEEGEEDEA
Setting [4] is: KIF18A microtubule-dependent ATPase activity, biochemical assay.

Chain of KIF18a-Microtubule Complex (Q8NI77 whole entry, looked up): as the sequence (Q8NI77 whole entry, looked up) above
Chain of KIF18a-Microtubule Complex (Q2XVP4 whole entry partner, looked up): as the sequence (Q2XVP4 whole entry partner, looked up) above
Chain of KIF18a-Microtubule Complex (P02554 whole entry partner, looked up): as the sequence (P02554 whole entry partner, looked up) above

As usually defined, the koff is a measure of how fast the partners let go of each other. A word on the IC50: it is the concentration that inhibits the measured activity by half. Turning to `CC(C)(C)NS(=O)(=O)c1cccc(C(=O)N2CC3(CCC4(CC4)CC3)c3cc(NS(C)(=O)=O)ccc32)c1` [Compound 22, N-(tert-butyl)-3-(5″- (methylsulfonamido)dispiro[cyclo-propane-1,1′-cyclohexane-4′,3″-indoline]-1″-carbonyl)benzenesulfonamide], the “kon (on-rate from binding kinetics assay)” value (shortened to “kon”) in experiment [1] (global progress curve analysis) came out at 10600 M⁻¹ s⁻¹. Besides, in experiment [1], the “disc. t1/2 (dissociation half-life ln(2)/koff)” value turned out to be 38 h. Further, the Ki in experiment [1] was found to be 0.55 nM. The koff in experiment [1] was 5e-06 s⁻¹. Moreover, the IC50 in the experiment with HCC15 cells (HCC15, 168 h) is 11 nM; in the experiment with NIH:OVCAR-3 cells (Homo sapiens, OVCAR-3, 168 h), 9.7 nM; in the experiment on JIMT-1 cells (Homo sapiens, 168 h) it was 7.8 nM; against hKIF18A (1-374), 9.4 nM; at hKIF18A (1-374) (setting [4]) it was 11 nM. Besides, the TGI in experiment [2] (10 mg/kg QD PO) was 24 ± 26%; in experiment [2] (30 mg/kg QD PO), 72 ± 17%; in experiment [2] (60 mg/kg QD PO), 82 ± 10%; in experiment [3] (10 mg/kg BID PO) it was 30 ± 15%; in experiment [3] (30 mg/kg BID PO) it was 72 ± 6%; in experiment [3] (60 mg/kg BID PO), 82 ± 9%.

`CCS(=O)(=O)Nc1ccc2c(c1)C1(CCC3(CC3)CC1)CN2C(=O)c1cccc(S(=O)(=O)NC(C)(C)C)c1` [Compound 134, N-(tert-butyl)-3-(5″-(ethylsulfonamido)dispiro[cyclopropane-1,1′-cyclohexane-4′,3″-indoline]-1″-carbonyl)benzenesulfonamide]: the “kon” value in experiment [1] (global progress curve analysis) was determined as 15000 M⁻¹ s⁻¹. For the same compound, the “disc. t1/2 (dissociation half-life ln(2)/koff)” value in experiment [1] worked out at 40 h. Further, the Ki in experiment [1] is 0.34 nM. In addition, in experiment [1], the koff was 5e-06 s⁻¹. Further, the IC50 in the experiment on HCC15 cells (HCC15, 168 h) is 5.1 nM; in the experiment on NIH:OVCAR-3 cells (Homo sapiens, OVCAR-3, 168 h), 5.1 nM; with JIMT-1 cells (Homo sapiens, 168 h), 4 nM; at hKIF18A (1-374) (setting [4]) it was 16 nM. Also, the TGI in experiment [2] (10 mg/kg BID PO) is 60 ± 17%; in experiment [2] (30 mg/kg BID PO, subfigure 1D), 111 ± 1%; in experiment [2] (30 mg/kg BID PO, subfigure printed 1R) it was 110 ± 1%; in experiment [2] (30 mg/kg QD PO), 104 ± 7%; in experiment [2] (60 mg/kg BID PO), 112 ± 1%; in experiment [2] (60 mg/kg QD PO) it was 109 ± 2%. The TGI in experiment [3] (10 mg/kg BID PO) was 61 ± 10%; in experiment [3] (30 mg/kg BID PO), 89 ± 7%; in experiment [3] (60 mg/kg BID PO), 94 ± 5%.

With `CCS(=O)(=O)Nc1ccc2c(c1)C1(CCC3(CC3)CC1)CN2C(=O)c1cccc(S(=O)(=O)N2CC3(CCO3)C2)c1` [Compound 320, N-(1″-(3-((1-oxa-6-azaspiro[3.3]heptan-6-yl)sulfonyl)benzoyl)dispiro[cyclopropane-1,1′-cyclohexane-4′,3″-indolin]-5″- yl)ethanesulfonamide], the “kon” value in experiment [1] (global progress curve analysis) turned out to be 7500 M⁻¹ s⁻¹. In addition, in experiment [1], the “disc. t1/2 (dissociation half-life ln(2)/koff)” value is on record as 45 h. In experiment [1], the Ki came to 0.57 nM. Moreover, the off-rate constant (koff) in experiment [1] was 4.17e-06 s⁻¹. For the same compound, the concentration for half-maximal inhibition (IC50) in the experiment on HCC15 cells (HCC15, 168 h) was 21 nM; with NIH:OVCAR-3 cells (Homo sapiens, OVCAR-3, 168 h), 20 nM; in the experiment with JIMT-1 cells (Homo sapiens, 168 h) it was 14 nM; at hKIF18A (1-374) (setting [4]) it was 18 nM.

Consider `CS(=O)(=O)Nc1ccc2c(c1)C1(CCC3(CC3)CC1)CN2C(=O)c1cccc(S(=O)(=O)C2CC(F)(F)C2)c1` [Compound 322, N-(1″-(3-((3,3-difluorocyclobutyl)sulfonyl)benzoyl)dispiro[cyclopropane-1,1′-cyclohexane-4′,3″-indolin]-5″- yl)methanesulfonamide], for which the “kon” value in experiment [1] (global progress curve analysis) is 10300 M⁻¹ s⁻¹. In addition, in experiment [1], the “disc. t1/2 (dissociation half-life ln(2)/koff)” value worked out at 5.7 h. For the same compound, the Ki in experiment [1] was 3.3 nM. In addition, the dissociation rate constant (koff) in experiment [1] is 3.33e-05 s⁻¹. Besides, the IC50 in the experiment on HCC15 cells (HCC15, 168 h) turned out to be 43 nM; with NIH:OVCAR-3 cells (Homo sapiens, OVCAR-3, 168 h), 40 nM; in the experiment on JIMT-1 cells (Homo sapiens, 168 h), 32 nM; at hKIF18A (1-374) (setting [4]), 21 nM.

On to `CCS(=O)(=O)Nc1ccc2c(c1)[C@]1(CC[C@@H](C(F)F)CC1)CN2C(=O)c1cccc(S(=O)(=O)NC(C)(C)C)c1` [Compound 333a], for which the “koff (off-rate from binding kinetics assay)” value in experiment [1] (global progress curve analysis) turned out to be 3.61e-06 s⁻¹. In experiment [1] (global progress curve analysis), the “kon” value amounted to 7780 M⁻¹ s⁻¹. The “disc. t1/2 (dissociation half-life ln(2)/koff)” value in experiment [1] stood at 53 h. In addition, the Ki in experiment [1] came out at 0.47 nM. Besides, the IC50 with HCC15 cells was determined as 22 nM; in the experiment on NIH:OVCAR-3 cells, 17 nM; in the experiment on JIMT-1 cells it was 24 nM; against hKIF18A (1-374) (setting [4]) it was 18 nM.
